# Data published in patent US10494341B2, “Compound containing indoleacetic acid core structure and use thereof” (Beijing An Jian Xi Bio-Medical Technology Co., Ltd., priority 2015, dated 2019).
# Key:
# [1] = system: cell cycle-dependent protein kinase (p21); test: Expression of p21 by immunoblotting; assay type: cell-based, mouse
# Description: (§1) The mechanism of compounds enhancing killing effect of chemotherapeutic agents on tumor cells while protecting normal cells: mouse colon cancer cells (MCA-38) and primarily-cultured normal mouse intestinal mucosa cells were cultured in a 96-well plate, respectively. 24 hours later, various concentrations (10, 30 and 90 μM) of compound b was respectively added to the cell culture medium, and incubated for 24 hours. LDH was used to detect the damage of the cells, and the cells were collected and extracted for protein. The expression levels of adenosine triphosphate-binding transporter (ABCG2) and the cell cycle-dependent protein […] (p21) were detected by immunoblotting (performed according to the instructions provided by the manufacturer). […] ABCG2 is a transporter, and can pump anticancer drugs out of the cells. […] The high expression of p21 allows the cells to be in non-dividing quiescent phase, so that cells are not sensitive to chemotherapeutic drugs or injury in other forms. The compounds of the present invention make these proteins expressed differentially in normal tissues and tumor tissues, which is one of the reasons for selectively protecting normal tissues and enhancing the sensitivity of tumors to treatment.
# [2] = system: mouse colon cancer cells (MCA-38); test: Killing effect of cisplatin on tumor cells with compound (LDH); assay type: cell-based; conditions: MCA-38, 10, 30 and 90 μM, 24 hours
# Description: as §1
# [3] = system: adenosine triphosphate-binding transporter (ABCG2); test: Expression of ABCG2 by immunoblotting; assay type: cell-based, mouse
# Description: as §1
# [4] = Content of active components in tumor tissue and normal peripheral tissue (HPLC); assay type: in vivo; conditions: last day of treatment
# Description: The experiment was carried out using compound a in this example. Under sterile conditions, a suspension of colon cancer cells (SW480) in logarithmic growth phase (cell concentration was adjusted to 1×10^7/mL with physiological saline) was inoculated subcutaneously to 5 to 6 weeks old balb/c female nude mice on the right rear back, and each nude mice was inoculated at an amount of 0.3 ml, i.e. the number of cells contained was 3×10^6 per each mouse. 10 days later, subcutaneous transplanted tumor of 100-250 mm^3 appeared. […] During the dosing period, the body weight of the nude mice was measured every two days with a precision electronic balance. […] After tumor formation, the surface morphology and activity of the transplanted tumor were examined, and the longest diameter (a) and the shortest diameter (b) of the tumor nodules were measured every 3 days with a vernier caliper. […] The tumor tissue and normal peripheral tissues were taken on the last day of treatment, and the content of the intermediate I therein was measured by HPLC (FIG. 9a). At the same time, paraffin sections were made, the occurrence of apoptosis was detected by terminal labeling (FIG. 9b), and the relative survival percentages of normal tissue and tumor tissue were calculated (the results are summarized in FIG. 9b).
# [5] = Metabolic kinetics in mice after gavage (plasma level of intermediate II); assay type: in vivo
# Description: Metabolic kinetics of the compound a in mice: the compound a and the intermediate II were administered to mice respectively by gavage at a dose of 25 mg/kg each time and 12 mg/kg each time (equimolar concentration). Equal volume of blood samples were collected at the time points of 1, 3, 5, 9, 18 and 24 hours, and centrifuged immediately. 100 μL of supernatant (plasma) was got, added with 2-fold volume of acetonitrile immediately to extract the blood samples twice, and centrifuged at high speed (12,000 rpm) for 5 minutes. The level of the intermediate II in the organic phase was determined by HPLC, and the content of the compound fragments was detected by LC-MS. Pharmacokinetics was analyzed by Pharmacokinetics Solutions 2.0 software (Summit Research Services, Montrose, Colo., USA).
# A549 cells = test: A549 transplanted tumors in nude mice, compound used alone; assay type: in vivo
# Description: Except cisplatin (intraperitoneal injection, once a week), all compounds were administered by gavage, once a day for 5 weeks continuously.
# SW480 cells = test: Degradation of the compound in cells (HPLC); assay type: in vitro ADME; conditions: 10 μM
# Description: Determination of the stability of the compound: (1) degradation of the compound in plasma: Compound a (10 μM) dissolved in DMSO was cultured with 10% bovine serum medium (5 mL) at 37° C. 200 μL of medium was collected at the time points of 1, 3, 6, 12 and 24 hours, respectively, added with equal volume of acetonitrile for reaction, and subjected to high speed centrifugation (13,000 rpm) for 5 minutes. The level of degradation of the compound was determined by HPLC. (2) Degradation of the compound in cells: the compound a dissolved in DMSO was added at a final concentration of 10 μM to a 6-well culture dish containing SW480 cells and incubated in carbon dioxide incubator. The cells were collected at the time points of 1, 3, 6, 12, and 24 hours, respectively, washed fully, then extracted with 0.5 mL of acetonitrile, and centrifuged at high speed (12,000 rpm) for 5 minutes. The level of degradation of the compound in the organic phase was determined by HPLC.
# [6] = normal mouse intestinal mucosa cells
# [7] = gavage, compound a 25 mg/kg, intermediate II 12 mg/kg (equimolar), intermediate II measured in plasma
Structure (SMILES),expression of p21 in tumor cells ([1]; MCA-38 cells),"expression of p21 in normal intestinal mucosa cells [1, 6]",killing effect of cisplatin on colon cancer cells [2],expression of ABCG2 in tumor cells ([3]; MCA-38 cells),"expression of ABCG2 in normal cells [3, 6]",content of active components in tumor tissues versus peripheral normal tissues [4],"content of intermediate II in plasma, versus mice given intermediate II ([5]; gavage 25 mg/kg)",metabolites in plasma ([5]; gavage 25 mg/kg),"AUC0 [5, 7]","Cmax [5, 7]","T1/2 [5, 7]","Tmax [5, 7]","inhibition of tumors (A549 cells; A549, high-dose compound a (25 mg/kg/day) gavage, 5 weeks)","inhibitory effect on the tumor (A549 cells; A549, cisplatin 5 mg/kg/week i.p., compound a 5 and 25 mg/kg/day, intermediates 12.5 mg/kg/day each)","body weights of the animals (A549 cells; A549, high dose, during administration)",compound hydrolyzed in cells (SW480 cells; within 3 hours),compound hydrolyzed in cells (SW480 cells; within 24 hours)
COc1ccc2c(CC(=O)OCCCCCCCCCCc3c(C)c(O)c(OC)c(OC)c3O)c(C)n(C(=O)c3ccc(Cl)cc3)c2c1 [compound b],no influence,significantly enhance the expression of p21,significantly enhances the killing effect of cisplatin,significantly inhibit expression,no influence,–,–,–,–,–,–,–,–,–,–,–,–
COC1=C(OC)C(=O)C(CCCCCCCCCCOC(=O)Cc2c(C)n(C(=O)c3ccc(Cl)cc3)c3cc(OC)ccc23)=C(C)C1=O [compound a],–,–,–,–,–,evidently higher,significantly higher,significantly reduced,63200 ng·h/mL,19800 ng/mL,7.6 h,5 h,≥ 60%,dose-dependent inhibitory effect against tumor,not significantly reduced,~80%,completely hydrolyzed
